In publication PMC12864786 (Nature Communications, 2026):

How the values were obtained:
ARE = biological target: T1, ARE (Algibacter luteus, UniProt A0A1M6FUJ9); assay: HPLC product distribution, end point […] min; format: biochemical; conditions: 4 mM nucleotide, PolyP 65 mM phosphate units, 10 mM Mn2+, 50 mM MOPS-NaOH pH 7.0, 37 °C
T1 sequence (A0A1M6FUJ9 1-283): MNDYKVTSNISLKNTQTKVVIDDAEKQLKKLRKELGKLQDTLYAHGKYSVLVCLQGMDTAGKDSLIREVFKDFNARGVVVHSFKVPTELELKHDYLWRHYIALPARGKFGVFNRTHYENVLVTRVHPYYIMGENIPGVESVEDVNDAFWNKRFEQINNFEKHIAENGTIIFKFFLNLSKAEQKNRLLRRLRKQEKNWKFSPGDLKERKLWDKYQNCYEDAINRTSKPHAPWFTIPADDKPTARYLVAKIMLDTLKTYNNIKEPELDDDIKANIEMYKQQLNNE

CHU = biological target: T2, CHU (Cytophaga hutchinsonii, UniProt A0A6N4SMB5); assay: HPLC product distribution, end point […] min; format: biochemical; conditions: 4 mM nucleotide, PolyP-60 65 mM phosphate units, 10 mM Mn2+, 50 mM MOPS-NaOH pH 7.0, 37 °C
T2 sequence (A0A6N4SMB5 1-305): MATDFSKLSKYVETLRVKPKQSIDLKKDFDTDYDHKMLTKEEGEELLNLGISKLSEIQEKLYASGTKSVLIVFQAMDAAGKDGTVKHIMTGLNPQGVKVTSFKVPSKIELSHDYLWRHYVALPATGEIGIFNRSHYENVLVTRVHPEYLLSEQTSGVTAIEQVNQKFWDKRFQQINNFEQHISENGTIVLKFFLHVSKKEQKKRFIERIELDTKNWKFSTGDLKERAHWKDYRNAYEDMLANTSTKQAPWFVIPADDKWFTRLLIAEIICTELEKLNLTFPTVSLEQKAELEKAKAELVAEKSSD

[1] = biological target: MBP-tagged Class III PPK2 enzyme from Pedobacter sp. (PED), full-length (Pedobacter sp.); assay: AUC
AUC = biological target: the molecule itself; assay: AUC

Question: What does the source list for Nc1nc2c(ncn2[C@@H]2O[C@H](COP(=O)(O)O)[C@@H](O)[C@H]2O)c(=O)[nH]1 [GMP]?
Answer: Percent conversion to NTP (ARE): PED and ARE exhibit weak activity against CMP, GDP, and GMP; product distribution (CHU): CHU produces significant amounts of GPn (guanine nucleotides with four or more phosphate groups)

Question: “MBP-tagged Class III PPK2 enzyme from Pedobacter sp. (PED), full-length” was tested. Which stoichiometry N [1] did it give?
Answer: 2

Question: Which product distribution (CHU) does the source give for Nc1ncnc2c1ncn2[C@@H]1O[C@H](COP(=O)(O)O)[C@@H](O)[C@H]1O [AMP] here?
Answer: Product distribution of MAN and CHU under the same conditions

B1: MBP-tagged Class III PPK2 enzyme from Cytophaga hutchinsonii (CHU), full-length (enzyme, UniProt A0A6N4SMB5 1-305, looked up)
chain: T2 sequence (A0A6N4SMB5 1-305)
Question: B1 was tested. Which “stoichiometry N” value (AUC) did it give?
Answer: 2
